From patent US6506766B1 (Abbott Laboratories, priority 1998, dated 2003)

What follows are compounds tested against T1, human progesterone receptor-A [PRA] isoform (Homo sapiens, UniProt P06401) (assay: Radioligand binding with human progesterone receptor cytosol ([3H]-progesterone competition)). Details: Ki (nM) PR.
T1 construct: host or cells: insect SF21 cells (baculovirus)
T1 sequence (P06401 1-769 isoform P06401-2): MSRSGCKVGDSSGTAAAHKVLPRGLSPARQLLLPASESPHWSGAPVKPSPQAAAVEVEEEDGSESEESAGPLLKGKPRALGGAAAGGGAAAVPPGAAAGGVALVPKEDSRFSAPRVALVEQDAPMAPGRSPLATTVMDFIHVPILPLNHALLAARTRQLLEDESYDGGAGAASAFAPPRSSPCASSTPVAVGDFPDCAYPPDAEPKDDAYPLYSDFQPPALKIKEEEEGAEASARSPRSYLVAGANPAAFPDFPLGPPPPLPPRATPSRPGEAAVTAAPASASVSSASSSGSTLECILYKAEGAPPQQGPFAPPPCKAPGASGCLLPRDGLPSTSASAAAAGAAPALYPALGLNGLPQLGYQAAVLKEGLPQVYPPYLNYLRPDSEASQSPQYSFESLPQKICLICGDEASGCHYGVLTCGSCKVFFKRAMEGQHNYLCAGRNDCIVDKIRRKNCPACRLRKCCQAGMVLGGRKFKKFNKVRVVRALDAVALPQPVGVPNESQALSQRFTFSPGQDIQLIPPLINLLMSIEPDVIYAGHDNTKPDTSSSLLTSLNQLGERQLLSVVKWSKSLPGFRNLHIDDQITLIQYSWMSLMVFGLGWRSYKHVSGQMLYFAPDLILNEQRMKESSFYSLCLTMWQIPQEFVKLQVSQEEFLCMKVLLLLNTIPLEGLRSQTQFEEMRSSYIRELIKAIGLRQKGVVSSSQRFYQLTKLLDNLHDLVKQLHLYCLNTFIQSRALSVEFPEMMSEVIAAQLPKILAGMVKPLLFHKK

SMILES	Ki
COC(=O)CN(C)C(=O)Oc1cccc(C2Oc3cccc(OC)c3-c3ccc4c(c32)C(C)=CC(C)(C)N4)c1 (stereo not shown) [Example 311, 2,5-Dihydro-10-methoxy-5-(3-(N-methyl-N-(carbomethoxymethyl)aminocarbonyloxy)phenyl)-2,2,4-trimethyl-1H-[1]benzopyrano[3,4-f]quinoline]	≥ 10000 nM

Same assay, conditions: PRA cytosol expressed in insect SF21 cells, [3H]Prog ~0.8 nM, 4° C. overnight; Ki by Cheng-Prusoff, KL ~4.5 nM; read-out: Ki (nM) PR

Ki	SMILES
≥ 10000 nM	COc1cccc2c1-c1ccc3c(c1C(C1C=CCCCC1)O2)C(C)=CC(C)(C)N3 (mixture of isomers) [Example 144]
1560 nM	COc1cccc2c1-c1ccc3c(c1C(c1cc(Cl)cc(Cl)c1)O2)C(C)=CC(C)(C)N3 (single isomer, unassigned; (-)) [Example 32, (−)-5-(3,5-Dichlorophenyl)-2,5-dihydro-10-methoxy-2,2,4-trimethyl-1H-[1]benzopyrano[3,4-f]quinoline]
≥ 10000 nM	COc1cccc2c1-c1ccc3c(c1C(CC(C)=O)O2)C(C)=CC(C)(C)N3 (stereo not shown) [Example 45, 1-(2,5-Dihydro-10-methoxy-2,2,4-trimethyl-1H-[1]benzopyrano[3,4-f]quinolin-5-yl)-2-propanone]
1670 nM	COc1cccc2c1-c1ccc3c(c1C(CCN(C)C)O2)C(C)=CC(C)(C)N3 (stereo not shown) [Example 64, 2,5-Dihydro-10-methoxy-2,2,4,N,N-pentamethyl-1H-[1]benzopyrano[3,4-f]quinoline5-ethanamine]
17300 nM	COc1cccc2c1-c1ccc3c(c1C(CCCO)O2)C(C)=CC(C)(C)N3 (stereo not shown) [Example 69, 2,5-Dihydro-10-methoxy-2,2,4-trimethyl-1H-[1]benzopyrano[3,4-f]quinoline-5-propanol]
≥ 10000 nM	C=CCNc1cccc(C2Oc3cccc(OC)c3-c3ccc4c(c32)C(C)=CC(C)(C)N4)c1 (stereo not shown) [Example 117, 3-(2,5-Dihydro-10-methoxy-2,2,4-trimethyl-1H-[1]benzopyrano[3,4-f]quinolin-5-yl)-N-(2-propenyl)benzenamine]
≥ 10000 nM	C=C(CC1Oc2cccc(OC)c2-c2ccc3c(c21)C(C)=CC(C)(C)N3)C(=O)OC (stereo not shown) [Example 173, 2,5-Dihydro-10-methoxy-5-(2-carbomethoxy-3-propenyl)-2,2,4-trimethyl-1H-[1]benzopyrano[3,4-f]quinoline]
1700 nM	COc1cccc2c1-c1ccc3c(c1C(CC=C1CCCCCC1)O2)C(C)=CC(C)(C)N3 (stereo not shown) [Example 189, 2,5-Dihydro-10-methoxy-5-(2-cycloheptylidenylethyl)-2,2,4-trimethyl-1H-[1]benzopyrano[3,4-f]quinoline]
970 nM	CCOC(=O)C1Oc2cccc(OC)c2-c2ccc3c(c21)C(C)=CC(C)(C)N3 (stereo not shown) [Example 208, 2,5-Dihydro-10-methoxy-5-(carboethoxy)-2,2,4-trimethyl-1H-[1]benzopyrano[3,4-f]quinoline]
5460 nM	COc1cccc2c1-c1ccc3c(c1C(C1CCCC1)O2)C(C)=CC(C)(C)N3 (stereo not shown) [Example 209, 2,5-Dihydro-10-methoxy-5-(cyclopentyl)-2,2,4-trimethyl-1H-[1]benzopyrano[3,4-f]quinoline]
386 nM	COc1c(O)ccc2c1-c1ccc3c(c1C(c1cccs1)O2)C(C)=CC(C)(C)N3 (stereo not shown) [Example 274, 2,5-Dihydro-9-hydroxy-10-methoxy-2,2,4-trimethyl-5-(2-thienyl)-1H-[1]benzopyrano[3,4-f]quinoline]

Further lines, the compound ahead of its results:

SMILES	Ki
COc1cccc2c1-c1ccc3c(c1C(=Cc1ccccc1)O2)C(C)=CC(C)(C)N3 (mixture of isomers) [Example 18, 2,5-Dihydro-10-methoxy-2,2,4-trimethyl-5-(phenylmethylene)-1H-[1]benzopyrano[3,4-f]quinoline]	1040 nM
COc1cccc2c1-c1ccc3c(c1C(C1C=CCC1)O2)C(C)=CC(C)(C)N3 (racemic) [Example 136]	2700 nM
C=CCC1Oc2ccc(OC(=O)CCC(=O)N(C)C)c(Cl)c2-c2ccc3c(c21)C(C)=CC(C)(C)N3 (racemic) [Example 421, (+/−)2,5-Dihydro-9-(4-N,N-dimethylamino-4-oxo-butanoyloxy)-10-chloro-2,2,4-trimethyl-5-allyl-1H-[1]benzopyrano[3,4-f]quinoline]	11.6 nM
COc1cccc2c1-c1ccc3c(c1C(c1cc(Cl)cc(Cl)c1)O2)C(C)=CC(C)(C)N3 (single isomer, unassigned; (+)) [Example 33, (+)-5-(3,5-Dichlorophenyl)-2,5-dihydro-10-methoxy-2,2,4-trimethyl-1H-[1]benzopyrano[3,4-f]quinoline]	8320 nM
CCC1([C@@H]2Oc3ccc(O)c(OC)c3-c3ccc4c(c32)C(C)=CC(C)(C)N4)CC=CCC1 (single isomer, unassigned; (-)) [Example 263]	59.6 nM
COc1cccc2c1-c1ccc3c(c1C(c1cc(Cl)cc(Cl)c1)O2)C(C)=CC(C)(C)N3 (stereo not shown) [Example 19, 5-(3,5-Dichlorophenyl)-2,5-dihydro-10-methoxy-2,2,4-trimethyl-1H-[1]benzopyrano[3,4-f]quinoline]	4970 nM
CCCCC1Oc2cccc(OC)c2-c2ccc3c(c21)C(C)=CC(C)(C)N3 (stereo not shown) [Example 20, 5-Butyl-2,5-dihydro-10-methoxy-2,2,4-trimethyl-1H-[1]benzopyrano[3,4-f]quinoline]	1680 nM
COc1cccc2c1-c1ccc3c(c1C(Cc1ccccc1)O2)C(C)=CC(C)(C)N3 (stereo not shown) [Example 53, 2,5-Dihydro-10-methoxy-2,2,4-trimethyl-5-(phenylmethyl)-1H-[1]benzopyrano[3,4-f]quinoline]	2910 nM
COc1cccc2c1-c1ccc3c(c1C(C)O2)C(C)=CC(C)(C)N3 (stereo not shown) [Example 57, 2,5-Dihydro-10-methoxy-2,2,4,5-tetramethyl-1H-[1]benzopyrano[3,4-f]quinoline]	4280 nM
C#CCOc1cccc(C2Oc3cccc(OC)c3-c3ccc4c(c32)C(C)=CC(C)(C)N4)c1 (stereo not shown) [Example 92, 2,5-Dihydro-10-methoxy-2,2,4-trimethyl-5-[3-(2-propynyloxy)phenyl]-1H-[1]benzopyrano[3,4-f]quinoline]	≥ 10000 nM
CNc1cc(C)cc(C2Oc3cccc(OC)c3-c3ccc4c(c32)C(C)=CC(C)(C)N4)c1 (stereo not shown) [Example 114, 3-(2,5-Dihydro-10-methoxy-2,2,4-trimethyl-1H-[1]benzopyrano[3,4-f]quinolin-5-methyl)-5,N-dimethylbenzenamine]	≥ 10000 nM
COc1cccc2c1-c1ccc3c(c1C(C1C=CCCCCC1)O2)C(C)=CC(C)(C)N3 (stereo not shown) [Example 143, 2,5-Dihydro-10-methoxy-5-(3-cyclooctenyl)-2,2,4-trimethyl-1H-[1]benzopyrano[3,4f]quinoline]	8100 nM
COc1cccc2c1-c1ccc3c(c1C(CC1=CCCCC1)O2)C(C)=CC(C)(C)N3 (stereo not shown) [Example 145, 2,5-Dihydro-10-methoxy-5-(1-cyclohexenylmethyl)-2,2,4-trimethyl-1H-[1]benzopyrano[3,4-f]quinoline]	≥ 10000 nM
C=C(Br)CC1Oc2cccc(OC)c2-c2ccc3c(c21)C(C)=CC(C)(C)N3 (stereo not shown) [Example 147, 2,5-Dihydro-10-methoxy-5-(2-bromo-3-propenyl)-2,2,4-trimethyl-1H-[1]benzopyrano[3,4-f]quinoline]	9300 nM
C=CC(=C)CC1Oc2cccc(OC)c2-c2ccc3c(c21)C(C)=CC(C)(C)N3 (stereo not shown) [Example 172]	9900 nM
COc1cccc2c1-c1ccc3c(c1C(CCO)O2)C(C)=CC(C)(C)N3 (stereo not shown) [Example 199, 2,5-Dihydro-10-methoxy-5-(2-hydroxyethyl)-2,2,4-trimethyl-1H-[1]benzopyrano[3,4-f]quinoline]	≥ 10000 nM
COc1cccc2c1-c1ccc3c(c1C(C1CCCCC1)O2)C(C)=CC(C)(C)N3 (stereo not shown) [Example 212, 2,5-Dihydro-10-methoxy-5-(cyclohexyl)-2,2,4-trimethyl-1H-[1]benzopyrano[3,4-f]quinoline]	≥ 10000 nM
CC1=CC(C)(C)Nc2ccc3c(c21)[C@H]([C@@H]1C=CCC1)Oc1ccc(O)c(Cl)c1-3 [Example 221, (−)2,5(S)-Dihydro-9-hydroxy-10-chloro-2,2,4-trimethyl-5-(3S-cyclopentenyl)-1H-[1]benzopyrano[3,4-f]quinoline]	4.2 nM
CC1=CC(C)(C)Nc2ccc3c(c21)C(c1ccccc1)Oc1ccc2c(c1-3)OCO2 (stereo not shown) [Example 227, 9-10-Methylenedioxy-5-phenyl-2,2,4-trimethyl-1H-2,5-dihydro-[1]benzopyrano[3,4-f]quinoline]	1930 nM
COc1c(O)ccc2c1-c1ccc3c(c1C(c1ccc(F)c(F)c1)O2)C(C)=CC(C)(C)N3 (stereo not shown) [Example 254, 2,5-Dihydro-9-hydroxy-10-methoxy-2,2,4-trimethyl-5-(3,4-difluorophenyl)-1H-[1]benzopyrano[3,4-f]quinoline]	1820 nM
C=CCOc1ccc2c(c1OC)-c1ccc3c(c1C(CC=C)O2)C(C)=CC(C)(C)N3 (stereo not shown) [Example 293, 10-Methoxy-9-(3-propenyloxy)-5-(3-propenyl)-2,2,4-trimethyl-1H-2,5-dihydro[1]benzopyrano[3,4-f]quinoline]	3740 nM
C=CCC1Oc2cccc(Cl)c2-c2ccc3c(c21)C(C)=CC(C)(C)N3 (stereo not shown) [Example 309, 10-Chloro-5-(3-propenyl)-2,2,4-trimethyl-2,5-dihydro-1H-[1]benzopyrano[3,4-f]quinoline]	60.7 nM
